The test deals with T1, Human PDE7B (hPDE7B) (Homo sapiens, UniProt Q9NP56).
T1 construct: made in house; host or cells: COS-7 cells
T1 sequence (Q9NP56 whole entry): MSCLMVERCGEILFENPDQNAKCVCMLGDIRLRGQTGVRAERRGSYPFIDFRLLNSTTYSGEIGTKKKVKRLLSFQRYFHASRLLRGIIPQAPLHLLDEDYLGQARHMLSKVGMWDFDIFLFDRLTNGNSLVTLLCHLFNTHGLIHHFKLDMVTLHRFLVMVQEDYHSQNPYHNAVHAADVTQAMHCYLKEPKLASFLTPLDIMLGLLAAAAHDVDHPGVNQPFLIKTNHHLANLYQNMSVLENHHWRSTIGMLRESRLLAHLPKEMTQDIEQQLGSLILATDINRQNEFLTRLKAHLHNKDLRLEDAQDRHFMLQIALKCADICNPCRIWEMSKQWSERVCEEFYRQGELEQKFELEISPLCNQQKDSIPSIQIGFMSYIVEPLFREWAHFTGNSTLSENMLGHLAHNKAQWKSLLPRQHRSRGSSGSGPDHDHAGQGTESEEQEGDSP
Description: Measurement of PDE7 inhibitory activity (Experimental Example 1; residual cAMP, LANCE Ultra cAMP TR-FRET). Type of test: biochemical. Particulars: cAMP 3 nmol/L, room temperature 60 minutes. How it is done: Human PDE7B (hPDE7B) was isolated from COS-7 cells transfected with plasmids encoding hPDE7B according to the method described in a reference, Biochemical and Biophysical Research Communication, 271, p. 575-583 (2000). The resulting enzyme solution was used in the PDE assay.
PDE7 inhibitory assay was carried out by reacting the mixture of a compound, hPDE7B, and cAMP, and measuring the residual cAMP by a detection method using LANCE (registered trademark) Ultra cAMP Detection Kit (ParkinElmer). The compound was dissolved in DMSO, and diluted so that the concentration would become 50 times of the final concentration. The hPDE7B and cAMP were diluted with an assay buffer (50 mmol/L Tris-HCl, 1 mmol/L MgCl2, 0.1% BSA, 0.5 mmol/L DTT, pH7.5) so that the hPDE7B would have an appropriate enzyme activity and the concentration of cAMP would become 6 nmol/L. To a 96 well plate were added the compound (2 μL) (DMSO final concentration: 2%), hPDE7B (48 μL), and cAMP (50 μL) (concentration at the reaction: 3 nmol/L), and the resulting mixture was reacted at room temperature for 60 minutes. The reaction solution (20 μL) was subjected to a TR-FRET method according to the protocol specified by the kit to measure the concentration of the residual cAMP. In the assay, to a tracer solution specified by the kit was added 0.5 mmol/L of 3-isobutyl-1-methylxanthine (IBMX, nonselective PDE inhibitor) in order to stop the PDE enzyme reaction after the completion of reaction until the measurement.
The reaction without a compound was defined as “0% inhibition”, the reaction without hPDE7B was defined as “100% inhibition”, and the inhibition rate of the compound was calculated by the following equation.
Inhibition rate of compound (%)={(Residual cAMP concentration at the addition of compound−Residual cAMP concentration in 0% inhibition)/(Residual cAMP concentration in 100% inhibition−Residual cAMP concentration in 0% inhibition)}×100
For orientation: In TR-FRET formats the signal depends on donor and acceptor labels being close together.
With `CC1CCN(c2nnc3c(N)nccn23)CC1C` (mixture of isomers) [Example 55, 3-(3,4-dimethylpiperidin-1-yl) [1,2,4]triazolo[4,3-a]pyrazin-8-amine], the 50% inhibitory concentration (IC50) (as a rule, the concentration that inhibits the measured activity by half) was 30 nM. `CC1CCCCC1n1nnc2c(N)ncnc21` (racemic) [Example 1, 3-(trans-2-methylcyclohexyl)-3H-[1,2,3]triazolo[4,5-d]pyrimidin-7-amine]: the concentration for half-maximal inhibition (IC50) amounted to 80 nM. Compared with the last molecule, the IC50 is about 2.7-fold higher. In turn, `Nc1nccn2c(C3CCCc4ccccc43)nnc12` (racemic) [Example 17, 3-(1,2,3,4-tetrahydronaphthalen-1-yl)-[1,2,4]triazolo[4,3-a]pyrazin-8-amine] returned a 50% inhibitory concentration (IC50) of 320 nM. The result for `CCC1CCCCN1c1nnc2c(N)nccn12` (racemic) [Example 23, 3-(2-ethylpiperidin-1-yl) [1,2,4]triazolo[4,3-a]pyrazin-8-amine] reads 40 nM; that for `CC1CC(C)CN(c2nnc3c(N)nccn23)C1` (racemic) [Example 53, 3-[trans-3,5-dimethylpiperidin-1-yl][1,2,4]triazolo[4,3-a]pyrazin-8-amine], 20 nM. The result for `CC1CCC(C)N(c2nnc3c(N)nccn23)C1` (racemic) [Example 58, 3-(2,5-dimethylpiperidin-1-yl) [1,2,4]triazolo[4,3-a]pyrazin-8-amine] reads 20 nM; that for `CC1CCC(C)N(c2nnc3c(N)nccn23)C1` (racemic) [Example 59, 3-(2,5-dimethylpiperidin-1-yl) [1,2,4]triazolo[4,3-a]pyrazin-8-amine], 240 nM. `CC1CCC(C)N(c2nnc3c(N)ncc(C#N)n23)C1` (racemic) [Example 60, 8-amino-3-(2,5-dimethylpiperidin-1-yl) [1,2,4]triazolo[4,3-a]pyrazine-5-carbonitrile] had a 50% inhibitory concentration (IC50) below 10 nM. The figure for `CC1CCC(C)(C)CN1c1nnc2c(N)nccn12` (racemic) [Example 65, 3-(2,5,5-trimethylpiperidin-1-yl) [1,2,4]triazolo[4,3-a]pyrazin-8-amine] is below 10 nM. The figure for `CC1(C)CCCC(c2nnc3c(N)ncnn23)C1` (racemic) [Example 73, 3-(3,3-dimethylcyclohexyl) [1,2,4]triazolo[3,4-f][1,2,4]triazin-8-amine] is 1 nM; for `CC1CCC(F)(F)CC1c1nnc2c(N)ncnn12` (racemic) [Example 76, 3-(cis-5,5-difluoro-2-methylcyclohexyl) [1,2,4]triazolo[3,4-f][1,2,4]triazin-8-amine] it is below 10 nM. The result for `Nc1nccn2c(C3CCc4ccccc4C3)nnc12` (racemic) [Example 77, 3-(1,2,3,4-tetrahydronaphthalen-2-yl)-[1,2,4]triazolo[4,3-a]pyrazin-8-amine] reads 310 nM; that for `CCCC1CCCCN1c1nnc2c(N)nccn12` (racemic) [Example 79, 3-(2-propylpiperidin-1-yl)-[1,2,4]triazolo[4,3-a]pyrazin-8-amine], 260 nM; that for `Nc1ncnc2c1nnn2[C@H]1CCC[C@@H](C(F)(F)F)C1` (racemic) [Example 87, 3-[cis-3-(trifluoromethyl)cyclohexyl]-3H-[1,2,3]triazolo[4,5-d]pyrimidin-7-amine], 30 nM. In the case of `CC1CCCC(n2nnc3c(N)ncnc32)C1` (racemic) [Example 94, 3-(trans-3-methylcyclohexyl)-3H-[1,2,3]triazolo[4,5-d]pyrimidin-7-amine], the IC50 was 60 nM. The figure for `CC1CCCCC1n1nnc2c(N)ncnc21` (racemic) [Example 95, 3-(cis-2-methylcyclohexyl)-3H-[1,2,3]triazolo[4,5-d]pyrimidin-7-amine] is 40 nM.

As for `Nc1ncnc2c1nnn2C1CCCCC1C(F)(F)F` (racemic) [Example 96], the IC50 worked out at 950 nM.

With `Nc1ncnc2c1nnn2C1CCCCC1F` (racemic) [Example 97, 3-(cis-2-fluorocyclohexyl)-3H-[1,2,3]triazolo[4,5-d]pyrimidin-7-amine], the half-inhibitory concentration (IC50) was 50 nM. The result for `CC1CCCC(n2nnc3c(N)ncnc32)C1` (racemic) [Example 98, 3-(cis-3-methylcyclohexyl)-3H-[1,2,3]triazolo[4,5-d]pyrimidin-7-amine] reads 80 nM. The result for `CO[C@H]1CCCC[C@H]1n1nnc2c(N)ncnc21` (racemic) [Example 111, 3-[cis-2-methoxycyclohexyl]-3H-[1,2,3]triazolo[4,5-d]pyrimidin-7-amine] reads 320 nM; that for `Nc1ncnc2c1nnn2C1CCCCC1(F)F` (racemic) [Example 113, 3-(2,2-difluorocyclohexyl)-3H-[1,2,3]triazolo[4,5-d]pyrimidin-7-amine], 30 nM; that for `C[C@H]1CCC[C@H](c2nnc3c(N)nccn23)C1` (racemic) [Example 143, 3-(trans-3-methylcyclohexyl) [1,2,4]triazolo[4,3-a]pyrazin-8-amine], 50 nM.

Molecule `CC1(C)CCCC(c2nnc3c(N)nccn23)C1` (racemic) [Example 144, 3-(3,3-dimethylcyclohexyl) [1,2,4]triazolo[4,3-a]pyrazin-8-amine] displayed an IC50 of 10 nM. Against the preceding molecule, the IC50 is about 5-fold lower. The result for `Nc1nccn2c(C3CCCC4(CC4)C3)nnc12` (racemic) [Example 145, 3-(spiro[2,5]oct-5-yl) [1,2,4]triazolo[4,3-a]pyrazin-8-amine] reads 30 nM. The result for `Nc1nccn2c(C3CCCC(C(F)(F)F)C3)nnc12` (racemic) [Example 146, 3-[cis-3-(trifluoromethyl)cyclohexyl][1,2,4]triazolo[4,3-a]pyrazin-8-amine] reads 40 nM; that for `CC1CCC(C(F)(F)F)CC1c1nnc2c(N)nccn12` (racemic) [Example 151, 3-[2-methyl-5-(trifluoromethyl)cyclohexyl][1,2,4]triazolo[4,3-a]pyrazin-8-amine], 10 nM; that for `CC1CCC(F)(F)CC1c1nnc2c(N)nccn12` (racemic) [Example 152, 3-(cis-5,5-difluoro-2-methylcyclohexyl) [1,2,4]triazolo[4,3-a]pyrazin-8-amine], below 10 nM. The result for `CC1CC(c2nnc3c(N)nccn23)CC(F)(F)C1` (racemic) [Example 155, 3-(trans-3,3-difluoro-5-methylcyclohexyl[1,2,4]triazolo[4,3-a]pyrazin-8-amine] reads 90 nM. On to `CC1(C)CC(c2nnc3c(N)nccn23)CC(F)(F)C1` (racemic) [Example 156, 3-(3,3-difluoro-5,5-dimethylcyclohexyl) [1,2,4]triazolo[4,3-a]pyrazin-8-amine], for which the half-inhibitory concentration (IC50) was 30 nM. This IC50 lies about 3-fold lower than the previous one. The figure for `CN1CCCCC1c1nnc2c(N)nccn12` (racemic) [Example 249, 3-(1-methylpiperidin-2-yl)-[1,2,4]triazolo[4,3-a]pyrazin-8-amine] is 740 nM. The result for `Nc1nccn2c(C3CCCCN3c3ncccn3)nnc12` (racemic) [Example 250, 3-(1-(pyrimidin-2-yl)piperidin-2-yl)-[1,2,4]triazolo[4,3-a]pyrazin-8-amine] reads 180 nM; that for `COC(=O)N1CCCCC1c1nnc2c(N)nccn12` (racemic) [Example 251, methyl 2-(8-amino-[1,2,4]triazolo[4,3-a]pyrazin-3-yl)-piperidine-1-carboxylate], 620 nM. The figure for `Nc1ncnc2c1nnn2[C@H]1CCC[C@H](C(F)(F)F)C1` (relative stereo) [Example 86, 3-[trans-3-(trifluoromethyl)cyclohexyl]-3H-[1,2,3]triazolo[4,5-d]pyrimidin-7-amine] is 360 nM; for `Nc1nccn2c([C@@H]3[C@H]4C=CC[C@H]43)nnc12` (relative stereo) [Example 163, 3-[(1S*,5R*,6S*)-bicyclo[3.1.0]hex-2-en-6-yl][1,2,4]triazolo[4,3-a]pyrazin-8-amine] it is 220 nM; for `CC1CCCN(c2nnc3c(N)nccn23)C1C` (single isomer, unassigned) [Example 56, 3-(2,3-dimethylpiperidin-1-yl) [1,2,4]triazolo[4,3-a]pyrazin-8-amine] it is 190 nM. In turn, `CC1CCCCC1c1nnc2c(N)ncnn12` (single isomer, unassigned) [Example 69, 3-(cis-2-methylcyclohexyl) [1,2,4]triazolo[3,4-f][1,2,4]triazin-8-amine] returned an IC50 of 10 nM. With `CC1CCCC(c2nnc3c(N)ncnn23)C1` (single isomer, unassigned) [Example 71, 3-(cis-3-methylcyclohexyl) [1,2,4]triazolo[3,4-f][1,2,4]triazin-8-amine], the IC50 amounted to 4 nM. As to `Nc1ncnn2c(C3CCCC(C(F)(F)F)C3)nnc12` (single isomer, unassigned) [Example 74, 3-[cis-3-(trifluoromethyl)cyclohexyl][1,2,4]triazolo[3,4-f][1,2,4]triazin-8-amine], the half-inhibitory concentration (IC50) is below 10 nM.

These data come from patent US20190185479A1, “BICYCLIC NITROGENATED HETEROCYCLIC COMPOUND” (MITSUBISHI TANABE PHARMA CORPORATION, priority 2016, published 2019).
